# Square brackets hold non-standard residues; d marks the D form. Ends that are not written are not given here. Peptide text beside a SMILES is read from it.
# Assays:
# human GHRH receptor = target: T1, human GHRH receptor (Homo sapiens, UniProt Q02643); experiment: Competitive 125I-GHRH binding assay in BHK cell membrane preparations expressing the human GHRH receptor; settings: ratio IC50 of hGHRH(1-29)-NH2/IC50 analogue, mean±SEM
# T1 construct: expressed in transfected cells; host or cells: BHK (baby hamster kidney) 570 cells
# T1 sequence (Q02643 23-423): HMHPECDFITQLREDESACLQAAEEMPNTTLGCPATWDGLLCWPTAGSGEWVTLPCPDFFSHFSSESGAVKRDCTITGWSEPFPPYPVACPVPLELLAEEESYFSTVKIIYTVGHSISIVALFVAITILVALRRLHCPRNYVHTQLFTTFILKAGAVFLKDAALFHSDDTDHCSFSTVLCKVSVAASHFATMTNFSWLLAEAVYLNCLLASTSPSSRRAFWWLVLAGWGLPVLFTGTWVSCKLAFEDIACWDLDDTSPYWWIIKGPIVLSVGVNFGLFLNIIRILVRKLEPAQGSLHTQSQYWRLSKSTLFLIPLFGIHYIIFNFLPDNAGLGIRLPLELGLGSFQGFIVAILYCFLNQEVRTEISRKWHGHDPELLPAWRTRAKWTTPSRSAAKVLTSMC
# Protocol: Non specific binding was determined in presence of 1 μM hGHRH(1-29)NH2. Incubation was carried out at equilibrium (23° C., 60 min) and stopped by centrifugation (12,000 g, 5 min, at 4° C.). The radioactivity content in pellets was determined by gamma counting. The affinity of hGHRH(1-29) NH2 was tested in each experiment to assess the validity of the assay and determine the relative affinity of the analogues.
# Values represent the mean±SEM of 3 experiments performed in triplicate for the analogues and the mean±SEM of 2 experiments performed in triplicate for hGHRH(1-44) NH2.
# For the binding assay results presented in Tables 8 to 11, values represent the mean±SEM of 8 independent experiments performed in triplicate for the analogues and the mean±SEM of 4 experiments performed in triplicate for hGHRH(1-29)NH2. […] The relative affinity was obtained by taking the ratio IC50 of hGHRH (1-29)-NH2/IC50 analogue.
# [1] = In vitro proteolysis assay in rat serum; format: in vitro ADME; settings: mean±SEM; for Residual concentration: incubation 0 min; for remaining at 8 min, 15 µM / remaining at 0.25 h, 15 µM / remaining at 0.5 h, 15 µM / remaining at 1 h, 15 µM: male, Sprague Dawley, read-out: Residual concentration; for remaining at 8 min, 15 µM: diluted 1/100, incubation 8 min; for remaining at 0.25 h, 15 µM: diluted 1/100, incubation 15 min; for remaining at 0.5 h, 15 µM: diluted 1/100, incubation 30 min; for remaining at 1 h, 15 µM: diluted 1/100, incubation 60 min
# Protocol: Proteolysis was stopped by adding 800 μl of ice-cold stop buffer (potassium-phosphate buffer, acidified to pH 0.8 with trifluoroacetic acid (TFA) and boiling 5 min (rat serum only). After centrifugation (12000 g, 5 min, 4° C.) (rat serum only), serum-peptide mixtures were passed through a conditioned Sep-Pak C-18 cartridge to extract native GHRH or a GHRH analogue residual concentrations from serum proteins. The native GHRH or the analogue was eluted in 2 ml of 50% acetonitrile-0.01% TFA/50% 0.01% aqueous TFA. Two hundred μl of extracted peptide, representing 1 μg of GHRH or analogue at time 0, was quantified by analytical HPLC, using one μ-Bondapak C18 column (10 μm particle size, 0.39×15 cm) (rat serum) or two C18 column in series (human serum and plasma) and a binary solvent system composed of NaClO4 0.01 M, pH 2.5 and acetonitrile. A linear gradient from 30 to 60% acetonitrile over 45 min (rat serum) or 30 to 50% (human serum and plasma) was used.
# in vitro = settings: male, human, plasma, Mean residual amount
# Protocol: (§1) Ten μl of a 300 M solution of hGHRH (1-29)NH2 or of a GHRH analogue was solubilized in dimethylsulfoxide (DMSO) and incubated in one of the following conditions: a—190 μl serum (1/100 dilution in picopure water) from 2-month-old male Sprague Dawley rats, at 37° C. for 0, 8, 15, 30 or 60 min, in polypropylene tubes; b—190 μl of human healthy volunteer plasma (from Human Whole Blood Na EDTA, males, drug free (Algorithme Pharma Inc.); project: MTL-P2-155; Lot: MTLP2155-01, supplied by LAB Dev Int); and c—190 μl of human healthy volunteer pooled serum, Lot: X409 (supplied by LAB Dev Int), at 37° C. for 0, 60, 120, 180 or 420 min, in polypropylene tubes. Proteolysis was stopped by adding 800 μl of ice-cold stop buffer (potassium-phosphate buffer, acidified to pH 0.8 with trifluoroacetic acid (TFA) and boiling 5 min (rat serum only). After centrifugation (12000 g, 5 min, 4° C.) (rat serum only), serum-peptide mixtures were passed through a conditioned Sep-Pak C-18 cartridge to extract native GHRH or a GHRH analogue residual concentrations from serum proteins. The native GHRH or the analogue was eluted in 2 ml of 50% acetonitrile-0.01% TFA/50% 0.01% aqueous TFA. Two hundred μl of extracted peptide, representing 1 μg of GHRH or analogue at time 0, was quantified by analytical HPLC, using one μ-Bondapak C18 column (10 μm particle size, 0.39×15 cm) (rat serum) or two C18 column in series (human serum and plasma) and a binary solvent system composed of NaClO4 0.01 M, pH 2.5 and acetonitrile. A linear gradient from 30 to 60% acetonitrile over 45 min (rat serum) or 30 to 50% (human serum and plasma) was used.
# (§2) More specifically, the values represent the mean, standard deviation and standard error from the mean of 3 to 7 experiments.
# [2] = In vitro proteolysis assay in human serum; format: in vitro ADME; settings: human serum
# Protocol: as §1, §2
Compound,Relative binding affinity (R1) in comparison with hGHRH(1-29)NH2 in BHK cells expressing the hGHRH receptor (human GHRH receptor; listed as 1),Relative binding affinity (R1) in comparison with hGHRH(1-29)NH2 in BHK cells expressing the hGHRH receptor (human GHRH receptor; listed as #1),Residual concentration [1],"remaining at 8 min, 15 µM [1] [%]","remaining at 0.25 h, 15 µM [1] [%]","remaining at 0.5 h, 15 µM [1] [%]","remaining at 1 h, 15 µM [1] [%]","remaining at 1 h, 15 µM (in vitro) [%]","remaining at 2 h, 15 µM (in vitro) [%]","remaining at 3 h, 15 µM (in vitro) [%]","Relative binding affinity (R1) in comparison with hGHRH(1-29)NH2 in BHK cells expressing the hGHRH receptor (human GHRH receptor; D-Tyr^10, Lys^22]human GHRH(1-29)NH2)",Relative binding affinity (R1) in comparison with hGHRH(1-29)NH2 in BHK cells expressing the hGHRH receptor (human GHRH receptor),Mean residual amount ([2]; incubation time 0 min) [%],Mean residual amount ([2]; incubation time 420 min),"remaining at 1 h, 15 µM ([2]; human, pooled human serum, incubation time 60 min, read-out: Mean residual amount) [%]","remaining at 2 h, 15 µM ([2]; human, pooled human serum, incubation time 120 min, read-out: Mean residual amount) [%]","remaining at 3 h, 15 µM ([2]; human, pooled human serum, incubation time 180 min, read-out: Mean residual amount) [%]","remaining at 7 h, 15 µM ([2]; human, pooled human serum, incubation time 420 min, read-out: Mean residual amount) [%]","remaining at 7 h, 15 µM (in vitro) [%]"
"CC[C@H](C)[C@H](NC(=O)[C@H](C)NC(=O)[C@H](CC(=O)O)NC(=O)[C@@H](C)NC(=O)[C@@H](N)Cc1ccc(O)cc1)C(=O)N[C@@H](Cc1ccccc1)C(=O)N[C@H](C(=O)N[C@@H](CC(N)=O)C(=O)N[C@@H](CO)C(=O)N[C@H](Cc1ccc(O)cc1)C(=O)N[C@@H](CCCNC(=N)N)C(=O)N[C@@H](CCCCN)C(=O)N[C@H](C(=O)N[C@@H](CC(C)C)C(=O)NCC(=O)N[C@@H](CCC(N)=O)C(=O)N[C@@H](CC(C)C)C(=O)N[C@@H](CO)C(=O)N[C@@H](C)C(=O)N[C@@H](CCCNC(=N)N)C(=O)N[C@@H](CCCCN)C(=O)N[C@@H](CCCCN)C(=O)N[C@@H](CC(C)C)C(=O)N[C@@H](CCC(N)=O)C(=O)N[C@@H](CC(=O)O)C(=O)N[C@H](C(=O)N[C@@H](CCSC)C(=O)N[C@@H](CO)C(=O)N[C@@H](CCCNC(=N)N)C(N)=O)[C@@H](C)CC)C(C)C)[C@@H](C)O [GHRH analogue #3, [D-Ala^2, D-Tyr^10, Lys^22] hGHRH(1-29)-NH2] (H-Y[dA]DAIFTNS[dY]RKVLGQLSARKKLQDIMSR-NH2; N-terminus assumed)",–,–,100 ± 0 % of initial concentration,82 ± 7,88 ± 7,70 ± 12,36 ± 4,87,78,81,239 ± 55,–,–,–,–,–,–,–,–
"YADAIFTAAYRKVLAQLSARKALQDIMSR-NH2 [GHRH analogue #2, [Ala^8, Ala^9, Ala^15, Ala^22] hGHRH(1-29)-NH2]",–,–,100 ± 0 % of initial concentration,83 ± 3,73 ± 5,53 ± 3,29 ± 2,–,–,–,–,–,–,–,–,–,–,–,–

# Now from value to compound:
Relative binding affinity (R1) in comparison with hGHRH(1-29)NH2 in BHK cells expressing the hGHRH receptor (human GHRH receptor; listed as 1),Relative binding affinity (R1) in comparison with hGHRH(1-29)NH2 in BHK cells expressing the hGHRH receptor (human GHRH receptor; listed as #1),Residual concentration [1],"remaining at 8 min, 15 µM [1] [%]","remaining at 0.25 h, 15 µM [1] [%]","remaining at 0.5 h, 15 µM [1] [%]","remaining at 1 h, 15 µM [1] [%]","remaining at 1 h, 15 µM (in vitro) [%]","remaining at 2 h, 15 µM (in vitro) [%]","remaining at 3 h, 15 µM (in vitro) [%]","Relative binding affinity (R1) in comparison with hGHRH(1-29)NH2 in BHK cells expressing the hGHRH receptor (human GHRH receptor; D-Tyr^10, Lys^22]human GHRH(1-29)NH2)",Relative binding affinity (R1) in comparison with hGHRH(1-29)NH2 in BHK cells expressing the hGHRH receptor (human GHRH receptor),Mean residual amount ([2]; incubation time 0 min) [%],Mean residual amount ([2]; incubation time 420 min),"remaining at 1 h, 15 µM ([2]; human, pooled human serum, incubation time 60 min, read-out: Mean residual amount) [%]","remaining at 2 h, 15 µM ([2]; human, pooled human serum, incubation time 120 min, read-out: Mean residual amount) [%]","remaining at 3 h, 15 µM ([2]; human, pooled human serum, incubation time 180 min, read-out: Mean residual amount) [%]","remaining at 7 h, 15 µM ([2]; human, pooled human serum, incubation time 420 min, read-out: Mean residual amount) [%]","remaining at 7 h, 15 µM (in vitro) [%]",Compound
499 ± 234,significantly higher binding affinity,100 ± 0 % of initial concentration,75 ± 12,70 ± 15,53 ± 8,30 ± 6,79,63,68,–,–,–,–,–,–,–,–,–,"CC[C@H](C)[C@H](NC(=O)[C@H](C)NC(=O)[C@H](CC(=O)O)NC(=O)[C@@H](C)NC(=O)[C@@H](N)Cc1ccc(O)cc1)C(=O)N[C@@H](Cc1ccccc1)C(=O)N[C@H](C(=O)N[C@@H](C)C(=O)N[C@@H](CO)C(=O)N[C@@H](Cc1ccc(O)cc1)C(=O)N[C@@H](CCCNC(=N)N)C(=O)N[C@@H](CCCCN)C(=O)N[C@H](C(=O)N[C@@H](CC(C)C)C(=O)N[C@@H](C)C(=O)N[C@@H](CCC(N)=O)C(=O)N[C@@H](CC(C)C)C(=O)N[C@@H](CO)C(=O)N[C@@H](C)C(=O)N[C@@H](CCCNC(=N)N)C(=O)N[C@@H](CCCCN)C(=O)N[C@@H](CCCCN)C(=O)N[C@@H](CC(C)C)C(=O)N[C@@H](CCC(N)=O)C(=O)N[C@@H](CC(=O)O)C(=O)N[C@H](C(=O)N[C@@H](CCSC)C(=O)N[C@@H](CO)C(=O)N[C@@H](CCCNC(=N)N)C(N)=O)[C@@H](C)CC)C(C)C)[C@@H](C)O [GHRH analogue #1, [D-Ala^2, Ala^8, Ala^15, Lys^22] hGHRH(1-29)-NH2] (H-Y[dA]DAIFTASYRKVLAQLSARKKLQDIMSR-NH2; N-terminus assumed)"
–,–,100 ± 0 % of initial concentration,98 ± 2,100,99 ± 1,97 ± 3,–,–,–,–,0.05 ± 0.01,–,–,–,–,–,–,–,"CC[C@H](C)[C@H](NC(=O)[C@H](C)NC(=O)[C@H](CC(=O)O)NC(=O)[C@@H](C)NC(=O)[C@@H](N)Cc1ccc(O)cc1)C(=O)N[C@@H](Cc1ccccc1)C(=O)N[C@H](C(=O)N[C@@H](C)C(=O)N[C@@H](CO)C(=O)N[C@H](Cc1ccc(O)cc1)C(=O)N[C@@H](CCCNC(=N)N)C(=O)N[C@@H](CCCCN)C(=O)N[C@H](C(=O)N[C@@H](CC(C)C)C(=O)N[C@@H](C)C(=O)N[C@@H](CCC(N)=O)C(=O)N[C@@H](CC(C)C)C(=O)N[C@@H](CO)C(=O)N[C@@H](C)C(=O)N[C@@H](CCCNC(=N)N)C(=O)N[C@H](CCCCN)C(=O)N[C@@H](CCCCN)C(=O)N[C@@H](CC(C)C)C(=O)N[C@@H](CCC(N)=O)C(=O)N[C@@H](CC(=O)O)C(=O)N[C@H](C(=O)N[C@@H](CCSC)C(=O)N[C@@H](CO)C(=O)N[C@@H](CCCNC(=N)N)C(N)=O)[C@@H](C)CC)C(C)C)[C@@H](C)O [GHRH analogue #4, [D-Ala^2, Ala^8, D-Tyr^10, Ala^15, D-Lys^21, Lys^22] hGHRH(1-29)-NH2] (H-Y[dA]DAIFTAS[dY]RKVLAQLSAR[dK]KLQDIMSR-NH2; N-terminus assumed)"
–,–,100 ± 0 % of initial concentration,81 ± 2,66 ± 3,43 ± 2,16 ± 1,53,44,23,–,–,100,disappeared totally,57,37,16,0,5,"CC[C@H](C)[C@H](NC(=O)[C@H](C)NC(=O)[C@H](CC(=O)O)NC(=O)[C@H](C)NC(=O)[C@@H](N)Cc1ccc(O)cc1)C(=O)N[C@@H](Cc1ccccc1)C(=O)N[C@H](C(=O)N[C@@H](CC(N)=O)C(=O)N[C@@H](CO)C(=O)N[C@@H](Cc1ccc(O)cc1)C(=O)N[C@@H](CCCNC(=N)N)C(=O)N[C@@H](CCCCN)C(=O)N[C@H](C(=O)N[C@@H](CC(C)C)C(=O)NCC(=O)N[C@@H](CCC(N)=O)C(=O)N[C@@H](CC(C)C)C(=O)N[C@@H](CO)C(=O)N[C@@H](C)C(=O)N[C@@H](CCCNC(=N)N)C(=O)N[C@@H](CCCCN)C(=O)N[C@@H](CC(C)C)C(=O)N[C@@H](CC(C)C)C(=O)N[C@@H](CCC(N)=O)C(=O)N[C@@H](CC(=O)O)C(=O)N[C@H](C(=O)N[C@@H](CCSC)C(=O)N[C@@H](CO)C(=O)N[C@@H](CCCNC(=N)N)C(N)=O)[C@@H](C)CC)C(C)C)[C@@H](C)O [hGHRH(1-29)NH2, reference compound]"

# Reference: patent US20090023646A1, “GHRH analogues” (Centre Hospitalier de L'Universite de Montreal (CHUM), priority 2002, published 2009)
